Assay results: patent US20060156419A1, “Mouse model for autoimmune disorders” (THE WISTAR INSTITUTE of ANATOMY and BIOLOGY, priority 2002, published 2006)
Where two headings read alike, the source gives them in different places.

Experiments:
TS1(SW) T cell receptor [1] = assay: Proliferation of TS1(SW) CD4+ T cells in response to graded doses of peptide; type: cell-based, mouse; settings: for EC50: read-out: half maximal stimulation
TS1 T cell receptor = assay: Proliferation of TS1 CD4+ T cells in response to graded doses of peptide; type: cell-based, mouse
TS1(SW) T cell receptor [2] = settings: Jordan et al, 2001; cited from earlier work

Row | Sequence | EC50 (TS1(SW) T cell receptor [1]; CD4+ T cells of TS1(SW) TCR transgenic mice, proliferation, FIG. 7) [nM] | binding affinity of TS1(SW) T cell receptor (in words) (TS1(SW) T cell receptor [1]; FIG. 7B) | binding affinity of TS1 T cell receptor (in words) (TS1 T cell receptor; FIG. 7A) | affinity for the TS1(SW) TCR, fold lower than for S1(SW) peptide (TS1(SW) T cell receptor [1]) | binding affinity of TS1(SW) T cell receptor (in words) (TS1(SW) T cell receptor [1]) | fold higher concentrations of S1 peptide needed to reach half-maximal stimulation (TS1(SW) T cell receptor [1]) | EC50 (TS1(SW) T cell receptor [1]) [nM] | binding affinity of TS1 T cell receptor (in words) (TS1 T cell receptor) | affinity of TS1(SW) TCR for S1 peptide, fold lower than that of the TS1 TCR (TS1(SW) T cell receptor [2])
1 | SFEKFEIFPKT [S1(SW) peptide] | ~50 | high affinity | low affinity | – | – | – | – | – | –
2 | SFERFEIFPKE [S1 peptide] | – | – | – | about 100 fold | low affinity | around 30 fold | > 1000 | high affinity | approximately 100 fold
